According to the NIST ThermoML archive (doi:10.1016/j.tca.2014.05.028):

Assay: xn = mol fraction of the nth substance listed
Settings: 101 kPa, Liquid; for viscosity: Falling or rolling sphere viscometry; for mass density: Vibrating tube method

CCCC[N+]1(C)CCCC1.[Br-] [1-butyl-1-methylpyrrolidinium bromide] + O
Settings | mass density, 323.15 K [kg/m3] | mass density, 328.15 K [kg/m3] | viscosity, 323.15 K [mPa·s] | viscosity, 328.15 K [mPa·s] | viscosity, 333.15 K [mPa·s]
x1 = 0.0265 | 1037.05 | 1034.23 | 0.879 | 0.782 | 0.705
x1 = 0.0561 | 1078.21 | 1074.97 | 1.42 | 1.244 | 1.1
x1 = 0.0871 | 1109.15 | 1105.64 | 2.234 | 1.935 | 1.701
x1 = 0.1283 | 1138.27 | 1134.62 | 3.762 | 3.23 | 2.817
x1 = 0.1645 | 1156.64 | 1152.97 | 5.403 | 4.572 | 3.923
x1 = 0.2074 | 1172.59 | 1168.97 | 7.915 | 6.602 | 5.554
x1 = 0.2525 | 1185.17 | 1181.63 | 11.49 | 9.462 | 7.969
x1 = 0.28 | 1191.05 | 1187.55 | 13.89 | 11.38 | 9.48
x1 = 0.3012 | 1195.06 | 1191.6 | 16.27 | 13.25 | 10.97
x1 = 0.3254 | 1199.08 | 1195.67 | 19.34 | 15.64 | 12.89
x1 = 1 | 1201.84 | 1198.05 | – | – | –
